This test addresses EN PA (Influenza A virus, UniProt P15659). Nature of the test: EN PA FRET Inhibition Assay. As to conditions: read-out: Potency. The test is classed as biochemical.
Take `CC(C)(C)c1ccc(-n2cc(O)c(=O)c(C(=O)O)n2)cc1` [Compound 3, 1-(4-tert-butylphenyl)-5-hydroxy-4-oxo-1,4-dihydropyridazine-3-carboxylic acid]: the IC50 lay in the range of 100 to 1000 nM.

As for `COc1cccc(-n2cc(O)c(=O)c(C(=O)O)n2)c1` [Compound 5], the IC50 is 100 to 1000 nM.

`CC(C)c1ccccc1-n1cc(O)c(=O)c(C(=O)O)n1` [Compound 8]: the IC50 was ≥ 1000 nM.

For `Cc1cccc(C)c1-n1cc(O)c(=O)c(C(=O)O)n1` [Compound 12], the IC50 was 100 to 1000 nM.

As for `COc1ccc(-c2ccccc2)cc1-n1cc(O)c(=O)c(C(=O)O)n1` [Compound 13], the IC50 was in the range of 100 to 1000 nM.

For the molecule `O=C(O)c1nn(-c2ccccc2OC(F)F)cc(O)c1=O` [Compound 14], the IC50 is ≥ 1000 nM.

For the molecule `Cc1ccc2cccc(-n3cc(O)c(=O)c(C(=O)O)n3)c2n1` [Compound 15], the IC50 lay within 100 to 1000 nM.

As for `CC(C)(C)c1ccccc1-n1cc(O)c(=O)c(C(=O)O)n1` [Compound 16], the IC50 was in the range of 100 to 1000 nM.

As to `CCCCNS(=O)(=O)c1cccc(-n2cc(O)c(=O)c(C(=O)O)n2)c1` [Compound 22], the IC50 lay within 100 to 1000 nM.

As for `CCOc1ccccc1-n1cc(O)c(=O)c(C(=O)O)n1` [Compound 23], the IC50 lay in the range of 100 to 1000 nM.

Turning to `CCCCOc1ccc(-n2cc(O)c(=O)c(C(=O)O)n2)cc1` [Compound 25], the IC50 was ≥ 1000 nM.

Regarding `COc1cc(OC)cc(-n2cc(O)c(=O)c(C(=O)O)n2)c1` [Compound 26], the IC50 fell in the range of 100 to 1000 nM.

In the case of `O=C(O)c1nn(-c2ccc(C(F)(F)F)cc2)cc(O)c1=O` [Compound 27], the IC50 lay within 100 to 1000 nM.

`O=C(O)c1nn(-c2ccc(N3CCCCC3)cc2)cc(O)c1=O` [Compound 28]: the IC50 was ≥ 1000 nM.

`O=C(O)c1nn(-c2ccccc2CCO)cc(O)c1=O` [Compound 29]: the IC50 was in the range of 100 to 1000 nM.

Take `O=C(O)c1nn(-c2cccc(OC(F)(F)F)c2)cc(O)c1=O` [Compound 30]: the IC50 was ≥ 1000 nM.

Consider `CS(=O)(=O)c1ccc(-n2cc(O)c(=O)c(C(=O)O)n2)cc1` [Compound 31], for which the IC50 was 100 to 1000 nM.

As to `O=C(O)c1nn(-c2ccc3c(c2)OCCO3)cc(O)c1=O` [Compound 32], the IC50 fell in the range of 100 to 1000 nM.

With `O=C(O)c1nn(-c2ccc3cn[nH]c3c2)cc(O)c1=O` [Compound 33], the IC50 fell in the range of 100 to 1000 nM.

Take `CCc1ccccc1-c1ccccc1-n1cc(O)c(=O)c(C(=O)O)n1` [Compound 34]: the IC50 fell in the range of 100 to 1000 nM.

As to `N#Cc1ccc(-c2ccccc2-n2cc(O)c(=O)c(C(=O)O)n2)cc1` [Compound 36], the IC50 was 100 to 1000 nM.

For `CC(C)Cc1ccc(-c2ccccc2-n2cc(O)c(=O)c(C(=O)O)n2)cc1` [Compound 37], the IC50 lay in the range of 100 to 1000 nM.

`Cc1ccccc1-c1ccccc1-n1cc(O)c(=O)c(C(=O)O)n1` [Compound 38]: the IC50 was 100 to 1000 nM.

With `CC(C)c1ccccc1-c1ccccc1-n1cc(O)c(=O)c(C(=O)O)n1` [Compound 39], the IC50 was in the range of 100 to 1000 nM.

For the molecule `O=C(O)c1nn(-c2ccccc2-c2ccccc2OC(F)(F)F)cc(O)c1=O` [Compound 40], the IC50 lay in the range of 100 to 1000 nM.

Regarding `O=C(O)c1nn(-c2ccccc2N2CCOCC2)cc(O)c1=O` [Compound 41], the IC50 was in the range of 100 to 1000 nM.

Regarding `O=C(O)c1nn(-c2ccc3[nH]ncc3c2)cc(O)c1=O` [Compound 42], the IC50 lay in the range of 100 to 1000 nM.

As to `O=C(O)c1nn(-c2ccc(Oc3ccccc3)cc2)cc(O)c1=O` [Compound 43], the IC50 is 100 to 1000 nM.

For `CCOC(=O)c1nn(-c2ccccc2S(=O)(=O)c2ccccc2)cc(O)c1=O` [Compound 44], the IC50 was ≥ 1000 nM.

Regarding `O=C(O)c1nn(-c2ccccc2N2CCCC2)cc(O)c1=O` [Compound 200, 5-hydroxy-4-oxo-1-(2-(pyrrolidin-1-yl)phenyl)-1,4-dihydropyridazine-3-carboxylic acid], the IC50 was in the range of 100 to 1000 nM.

`O=C(O)c1nn(-c2cc(C(F)(F)F)ccc2N2CCCC2)cc(O)c1=O` [Compound 201]: the IC50 fell in the range of 100 to 1000 nM.

With `CC1CCN(c2ccccc2-n2cc(O)c(=O)c(C(=O)O)n2)CC1` [Compound 202], the IC50 was in the range of 100 to 1000 nM.

For `CN1CCN(c2ccccc2-n2cc(O)c(=O)c(C(=O)O)n2)CC1` [Compound 204], the IC50 was ≥ 1000 nM.

Regarding `CCN1CCN(c2ccccc2-n2cc(O)c(=O)c(C(=O)O)n2)CC1` [Compound 205], the IC50 is ≥ 1000 nM.

`CC(C)(C)C1CCN(c2ccccc2-n2cc(O)c(=O)c(C(=O)O)n2)CC1` [Compound 208]: the IC50 is 100 to 1000 nM.

On to `CC1(C)CCCN(c2ccccc2-n2cc(O)c(=O)c(C(=O)O)n2)C1` [Compound 209], for which the IC50 fell in the range of 100 to 1000 nM.

As to `Cc1ccc(C)c(-c2ccccc2-n2cc(O)c(=O)c(C(=O)O)n2)c1` [Compound 300, 1-(2′,5′-dimethylbiphenyl-2-yl)-5-hydroxy-4-oxo-1,4-dihydropyidazine-3-carboxylic acid], the IC50 was 100 to 1000 nM.

Take `Cc1cc(C)cc(-c2ccccc2-n2cc(O)c(=O)c(C(=O)O)n2)c1` [Compound 301]: the IC50 was in the range of 100 to 1000 nM.

For `CC(C)(C)c1ccc(-c2ccccc2-n2cc(O)c(=O)c(C(=O)O)n2)cc1` [Compound 302], the IC50 fell in the range of 100 to 1000 nM.

For the molecule `Cc1ccc(-c2ccccc2-n2cc(O)c(=O)c(C(=O)O)n2)cc1` [Compound 303], the IC50 lay within 100 to 1000 nM.

`CC(C)(C)OC(=O)N1CCC(c2ccccc2-n2cc(O)c(=O)c(C(=O)O)n2)CC1` [Compound 304]: the IC50 was ≥ 1000 nM.

For the molecule `Cc1cc(F)ccc1-c1ccccc1-n1cc(O)c(=O)c(C(=O)O)n1` [Compound 305], the IC50 is 100 to 1000 nM.

With `O=C(O)c1nn(-c2ccccc2-c2ccc(F)cc2)cc(O)c1=O` [Compound 306], the IC50 was 100 to 1000 nM.

With `O=C(O)c1nn(-c2ccccc2-c2ccc(C(F)(F)F)cc2)cc(O)c1=O` [Compound 307], the IC50 was in the range of 100 to 1000 nM.

Regarding `O=C(O)c1nn(-c2ccccc2C2CCCCC2)cc(O)c1=O` [Compound 308], the IC50 was 100 to 1000 nM.

Consider `Cc1cccc(-c2ccccc2-n2cc(O)c(=O)c(C(=O)O)n2)c1C` [Compound 309], for which the IC50 was ≥ 1000 nM.

Turning to `CC(C)Oc1ccccc1-c1ccccc1-n1cc(O)c(=O)c(C(=O)O)n1` [Compound 310], the IC50 is 100 to 1000 nM.

Take `O=C(O)c1nn(-c2ccccc2-c2ccccc2Oc2ccccc2)cc(O)c1=O` [Compound 311]: the IC50 is < 100 nM.

Turning to `O=C(O)c1nn(-c2ccccc2C2CCNCC2)cc(O)c1=O` [Compound 312], the IC50 was ≥ 1000 nM.

In the case of `O=C(O)c1nn(-c2ccccc2-c2ccc3cc[nH]c3c2)cc(O)c1=O` [Compound 313], the IC50 was 100 to 1000 nM.

Regarding `COc1ccccc1-c1ccccc1-n1cc(O)c(=O)c(C(=O)O)n1` [Compound 315], the IC50 lay in the range of 100 to 1000 nM.

On to `O=C(O)c1nn(-c2ccccc2-c2cccc3c2oc2ccccc23)cc(O)c1=O` [Compound 316], for which the IC50 was 100 to 1000 nM.

Take `O=C(O)c1nn(-c2ccccc2-c2ccccc2OC2CCCCC2)cc(O)c1=O` [Compound 317]: the IC50 is < 100 nM.

As to `COc1cccc(-c2ccccc2-n2cc(O)c(=O)c(C(=O)O)n2)c1` [Compound 318], the IC50 was in the range of 100 to 1000 nM.

Regarding `COc1ccc(Cl)c(-c2ccccc2-n2cc(O)c(=O)c(C(=O)O)n2)c1` [Compound 322], the IC50 is 100 to 1000 nM.

For the molecule `COc1cc(Cl)cc(-c2ccccc2-n2cc(O)c(=O)c(C(=O)O)n2)c1` [Compound 323], the IC50 lay in the range of 100 to 1000 nM.

As to `Cn1ccc2ccc(-c3ccccc3-n3cc(O)c(=O)c(C(=O)O)n3)cc21` [Compound 324], the IC50 was 100 to 1000 nM.

For the molecule `CC(C)COc1ccccc1-c1ccccc1-n1cc(O)c(=O)c(C(=O)O)n1` [Compound 325], the IC50 is < 100 nM.

For the molecule `COc1ccccc1CCn1cc(O)c(=O)c(C(=O)O)n1` [Compound 413], the IC50 was < 100 nM.

With `COc1cccc(CCn2cc(O)c(=O)c(C(=O)O)n2)c1` [Compound 414], the IC50 is < 100 nM.

As to `COc1ccc(CCn2cc(O)c(=O)c(C(=O)O)n2)cc1` [Compound 415], the IC50 was in the range of 100 to 1000 nM.

As to `COc1ccc(CCn2cc(O)c(=O)c(C(=O)O)n2)cc1OC` [Compound 417], the IC50 lay within 100 to 1000 nM.

In the case of `O=C(O)c1nn(C2CCc3ccccc3C2=O)cc(O)c1=O` (stereo not shown) [Compound 418], the IC50 was in the range of 100 to 1000 nM.

As for `O=C(O)c1nn(CC2(c3cc(C(F)(F)F)cc(C(F)(F)F)c3)CCCC2)cc(O)c1=O` [Compound 419], the IC50 is < 100 nM.

For the molecule `CCOC(=O)c1nn(CC2(c3cc(C(F)(F)F)cc(C(F)(F)F)c3)CCCC2)cc(O)c1=O` [Compound 420], the IC50 is 100 to 1000 nM.

Consider `Cc1cn(C2(Cn3cc(O)c(=O)c(C(=O)O)n3)CCCC2)c2ncccc12` [Compound 425], for which the IC50 fell in the range of 100 to 1000 nM.

`O=C(NC1CC1)c1nn(CC2(c3cc(C(F)(F)F)cc(C(F)(F)F)c3)CCCC2)cc(O)c1=O` [Compound 508]: the IC50 is 100 to 1000 nM.

On to `CNC(=O)c1nn(-c2ccccc2-c2ccccc2OC(F)(F)F)cc(O)c1=O` [Compound 520], for which the IC50 is ≥ 1000 nM.

`CNC(=O)c1nn(-c2ccccc2-c2ccc3cc[nH]c3c2)cc(O)c1=O` [Compound 521]: the IC50 was ≥ 1000 nM.

On to `CNC(=O)c1nn(-c2ccccc2-c2cc(C)ccc2OC(C)C)cc(O)c1=O` [Compound 522], for which the IC50 lay in the range of 100 to 1000 nM.

On to `CNC(=O)c1nn(-c2ccccc2N2CCN(C)CC2)cc(O)c1=O` [Compound 600, 1,4-dihydro-5-hydroxy-N-methyl-1-(2-(4-methylpiperazin-1-yl)phenyl)-4-oxopyridazine-3-carboxamide], for which the IC50 was ≥ 1000 nM.

Regarding `CNC(=O)c1nn(-c2ccc3c(c2)OCCO3)cc(O)c1=O` [Compound 601, 1,4-dihydro-1-(2,3-dihydrobenzo[b][1,4]dioxin-6-yl)-5-hydroxy-N-methyl-4-oxopyridazine-3-carboxamide], the IC50 is ≥ 1000 nM.

With `CNC(=O)c1nn(CCc2cccc(C(F)(F)F)c2)cc(O)c1=O` [Compound 608], the IC50 was ≥ 1000 nM.

For the molecule `CCN1CCN(c2ccccc2-n2cc(O)c(=O)c(C(=O)NC)n2)CC1` [Compound 615], the IC50 is ≥ 1000 nM.

Consider `CNC(=O)c1nn(-c2ccccc2N2CCCC(C)(C)C2)cc(O)c1=O` [Compound 616], for which the IC50 is ≥ 1000 nM.

As to `NC(=O)c1nn(-c2ccccc2S(=O)(=O)c2ccccc2)cc(O)c1=O` [Compound 617], the IC50 was ≥ 1000 nM.

These data come from patent US10364226B2, “Pyridazinone compounds and uses thereof” (priority 2013, dated 2019).
